Laboratory results: patent publication US20150148311A1, “NON-SYSTEMIC TGR5 AGONISTS” (Ardelyx, Inc., priority 2011, published 2015)

Columns and labels:
[1] = tested on: total (t)PYY; assay: Time course of in vivo induction of total PYY; conditions: C57BL/6 male mice; for induction of tPYY levels following a single oral dose: 30 mg/kg oral, 4, 8, 12 and 16 h
Experimental: (§1) C57BL/6 male mice on regular chow received an oral dose of vehicle (2% DMSO in 0.4% hydroxypropyl methylcellulose) or examples 176 or 178 (at 30 mg/kg). Food was removed prior to/or at the time of dosing: 4, 8, 12, and 16 h groups fasted for 7, 8, 12 and 16 h, respectively. At the appropriate time after dosing, mice were heavily anesthetized with isoflurane, and blood was collected from the left ventricle of the heart and processed to plasma as described in Example 293 for measurement of total (t) GLP-1 and, additionally, total (t)PYY (N45ZA-1; Meso Scales Discovery, Gaithersburg Md.).

[2] = tested on: CD-1 female mice; assay: In vivo measurement of CCK-mediated gallbladder emptying (egg yolk); conditions: fasted ~16 h, oral 30 mg/kg (devazepide 1 mg/kg) 1 h before egg yolk, gallbladder weighed 15 min later (FIG. 1)
Experimental: CD-1 female mice on regular chow had food removed (to prevent gallbladder emptying) in the late evening. The next morning (˜16 h later), groups of mice were dosed orally with vehicle (10% hydroxypropyl-β-cyclodextrin; 2 groups), devazepide in water (1 mg/kg; […]. One hour later, 1 group of vehicle-treated mice was dosed orally with saline, and all other groups were dosed orally with lyophilized egg yolk [0.75 mL; 30% (wt/vol) reconstituted in saline for induction of CCK-mediated gallbladder emptying]. Fifteen minutes later, mice were heavily anesthetized with isoflurane, the peritoneal cavity was opened and gallbladders (with contents) were carefully excised and weighed.

[3] = tested on: total (t) GLP-1; assay: Time course of in vivo induction of total GLP-1; conditions: C57BL/6 male mice, 30 mg/kg oral, 4, 8, 12 and 16 h
Experimental: as §1

[4] = Compound plasma concentration, LC-MS/MS, 8 h post dose; type: in vivo; conditions: 30 mg/kg; for Number of Mice with Plasma Concentration < LLOQ: mice below LLOQ / mice in group; for concentration at 8 h: male, C57BL/6, mouse, mice, plasma, read-out: Mean Example Plasma Concentration
Procedure, shortened: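 Blood was taken from the left ventricle 8 h after dosing, under isoflurane anesthesia, into EDTA tubes containing aprotinin and DPPIV inhibitor. Plasma was protein-precipitated with acetonitrile containing an internal standard, and supernatants were analyzed by LC-MS/MS against a plasma standard curve.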

[5] = Compound concentration in gall bladder, LC-MS/MS, 8 h post dose; type: in vivo; conditions: 30 mg/kg; for Number of Mice with Gallbladder Concentration < LLOQ: mice below LLOQ / mice in group
Procedure, shortened: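 Gallbladder with its contents excised from isoflurane-anesthetized mice 8 h after dosing and homogenized in water. Homogenate diluted 1:5, precipitated with acetonitrile and measured by LC-MS/MS. Levels interpolated from per-compound standard curves in vehicle-treated gallbladder homogenate.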

[6] = tested on: C57BL/6 male mice; assay: In vivo gallbladder measurement (weight) 16 hours post-dose; conditions: 30 mg/kg
[7] = target: T1, human IBAT (Homo sapiens, UniProt Q12908); assay: IBAT counter screen, [3H]taurocholic acid uptake in IBAT-transfected HEK293 cells; type: cell-based; conditions: read-out: pEC50 human IBAT (converted)
T1 construct: expressed in transfected cells; host or cells: HEK293
T1 sequence (Q12908 1-348): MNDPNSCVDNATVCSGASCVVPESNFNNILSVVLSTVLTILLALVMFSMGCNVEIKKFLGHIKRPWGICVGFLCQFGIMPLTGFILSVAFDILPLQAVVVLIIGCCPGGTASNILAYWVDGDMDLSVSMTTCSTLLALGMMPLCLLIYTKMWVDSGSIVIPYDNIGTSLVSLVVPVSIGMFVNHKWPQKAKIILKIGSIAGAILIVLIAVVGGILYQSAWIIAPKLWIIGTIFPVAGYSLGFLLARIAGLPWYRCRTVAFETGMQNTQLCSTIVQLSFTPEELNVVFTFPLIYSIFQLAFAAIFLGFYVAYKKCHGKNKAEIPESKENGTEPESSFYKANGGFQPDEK
Experimental: Following a 40-min incubation, the solution was removed, and the cells were washed twice with uptake buffer. Cells were lysed by addition of 20 μL 0.1% Tween 80 followed by 100 μL scintillation fluid and counted using a TopCount (Perkin Elmer).

[8] = target: T2, human FXR (Homo sapiens, UniProt Q96RI1); assay: FXR counter screen, cell-based luciferase reporter assay; conditions: cells expressing human FXR and FXR-responsive luciferase reporter, 0.4 to 50 μM test compound; read-out: pEC50 human FXR (converted)
T2 construct: purchased Indigo Biosciences (State College, Pa.)
T2 sequence (Q96RI1 1-486): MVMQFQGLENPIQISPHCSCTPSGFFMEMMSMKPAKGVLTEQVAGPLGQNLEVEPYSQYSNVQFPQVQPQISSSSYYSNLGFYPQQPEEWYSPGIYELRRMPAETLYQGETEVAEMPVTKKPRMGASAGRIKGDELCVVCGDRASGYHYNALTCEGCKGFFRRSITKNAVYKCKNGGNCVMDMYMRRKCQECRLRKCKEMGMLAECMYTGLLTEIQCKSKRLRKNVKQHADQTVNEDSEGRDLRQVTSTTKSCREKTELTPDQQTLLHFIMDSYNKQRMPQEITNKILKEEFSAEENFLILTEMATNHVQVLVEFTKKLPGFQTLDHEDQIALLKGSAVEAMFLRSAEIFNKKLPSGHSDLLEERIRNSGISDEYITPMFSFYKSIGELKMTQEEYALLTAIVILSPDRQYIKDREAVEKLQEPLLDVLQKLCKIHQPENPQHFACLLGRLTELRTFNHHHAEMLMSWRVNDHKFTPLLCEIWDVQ
Experimental: FXR: The ability of test compounds to activate FXR (NR1H4) was measured using a cell-based assay kit obtained from Indigo Biosciences (State College, Pa.).

[9] = tested on: mice; conditions: i.p. injection, in 30 minutes, literature (Li et al. 2011); cited from earlier work

In the case of O=C(NC[C@H](O)[C@@H](O)[C@H](O)[C@H](O)CO)c1ccc(COc2cc(Cl)c(CN3CSC[C@H]3C(=O)N3CCN(C4CC4)c4ccccc43)cc2Cl)cc1 [Example 176, 4-(2,5-dichloro-4-{[(4R)-4-[(4-cyclopropyl-1,2,3,4-tetrahydroquinoxalin-1-yl)carbonyl]-1,3-thiazolidin-3-yl]methyl}phenoxymethyl)-N-[(2S,3R,4R,5R)-2,3,4,5,6-pentahydroxyhexyl]benzamide], the “induction of tPYY levels following a single oral dose” value [1] is reported as “sustained induction”, the “inhibition of CCK-mediated gallbladder emptying” value (“inhibition” for short) [2] is reported as “did not inhibit” and the “induction of tGLP-1 levels following a single oral dose” value [3] is reported as “sustained induction”. The “Number of Mice with Plasma Concentration < LLOQ” value [4] was 8/8, the concentration at 8 h [4] was less than 2 ng/mL and the “Number of Mice with Gallbladder Concentration < LLOQ” value [5] was 0/8. For the same compound, the concentration at 8 h ([5]; male, C57BL/6, mouse, with contents, mice, gallbladder homogenate, read-out: Mean Example Gallbladder Concentration) was 100 nM and the “effect on gallbladder weight/body weight” value [6] was “no significant effect”.

In the case of O=C(CCCCc1cc(Cl)c(CN2CSC[C@H]2C(=O)N2CCN(C3CC3)c3ccccc32)cc1Cl)NC[C@H](O)[C@@H](O)[C@H](O)[C@H](O)CO [Example 178, 5-(2,5-dichloro-4-(((R)-4-(4-cyclopropyl-1,2,3,4-tetrahydroquinoxaline-1-carbonyl)thiazolidin-3-yl)methyl)phenyl)-N-((2S,3R,4R,5R)-2,3,4,5,6-pentahydroxyhexyl)pentanamide], the “induction of tPYY levels following a single oral dose” value [1] is reported as “sustained induction”, the “times after dosing at which tPYY levels were significantly elevated” value ([1]; 30 mg/kg oral, tested 4, 8, 12 and 16 h (FIG. 2, panel B)) is reported as 8 h and the “inhibition” value [2] is reported as “did not inhibit”. For the same compound, the EC50 [7] was greater than 25.1 µM, the “induction of tGLP-1 levels following a single oral dose” value [3] was “sustained induction” and the EC50 [8] was greater than 50.1 µM. For the same compound, the “Number of Mice with Plasma Concentration < LLOQ” value [4] was 8/8, the concentration at 8 h [4] was less than 1 ng/mL and the “Number of Mice with Gallbladder Concentration < LLOQ” value [5] was 0/8. The “effect on gallbladder weight/body weight” value [6] was “no significant effect”.

In the case of CC[C@H]1[C@@H](O)[C@@H]2[C@H](C[C@H](O)[C@]3(C)[C@@H]([C@H](C)C[C@H](C)C(=O)O)CC[C@@H]23)[C@@]2(C)CC[C@@H](O)C[C@@H]12 [INT-777], the “increase of gallbladder volume” value [9] is given as “approximately two-fold”.

In the case of CN1C(=O)[C@@H](NC(=O)c2cc3ccccc3[nH]2)N=C(c2ccccc2)c2ccccc21 [devazepide, reference compound], the “inhibition” value [2] is reported as “did”.
